Patent US20240189263A1, “DERIVATIZED C60 MOLECULES AND METHODS AND MATERIALS FOR USING DERIVATIZED C60 MOLECULES TO REDUCE RADIATION INJURY” (Mayo Foundation for Medical Education and Research, priority 2021, published 2024)

How the values were obtained:
Assay type in all cases: cell-based
N2A cells = assay: ROS by H2-DCFDA probe after proton irradiation, N2A; conditions: 50 μM, positive control
Source text: (§1) Cell lines were irradiated using pencil beam scanning (PBS) proton beams produced by IBA ProteusOne (Ion Beam Applications, Louvain-la-Neuve, Belgium). Single layer mono-energy 227 MeV pencil beams with uniform spacing of 0.25 cm between each spot were used to create a large field size with uniform dose distribution (±2%) that encompassed all sample wells containing the cells. A fixed source to surface distance (SSD) setup and gantry at 180 degrees was used to delivery 0.5, 1, 2, 4, and 6 Gray (Gy) dose of ionizing radiation to cells. The cells were place at an 8 cm depth, with a linear energy transfer (LET) of approximately 1.7 keV/μm, using solid water slabs as a buildup. […] The monitor units needed to deliver the intended dose were calculated using the measure dose/MU values.
(§2) Post radiation, 2′,7′-dichlorodihydrofluorescein diacetate (H2-DCFDA) probes were used to measure the level of reactive oxygen species (ROS) post-proton radiation (1 Gy, 230 MeV proton beam). […] A fluorescence microplate reader (SpectraMax M5, Molecular Devices Corporation, California, USA) was used to detect the generation of fluorescent DCF molecules with an excitation filter of 485 nm and an emission filter of 525 nm, with a 515 nm cutoff filter. […] Following irradiation, the cells were transported back for plate reading, 30 minutes post radiation.

HUVEC cells = assay: ROS by H2-DCFDA probe after proton irradiation, HUVEC; conditions: 50 μM, positive control
Source text: as §1, §2

NIH3T3 cells = assay: ROS by H2-DCFDA probe after proton irradiation, NIH3T3; conditions: NIH3T3, 50 μM, positive control
Source text: as §1, §2

HepG2 cells = assay: ROS by H2-DCFDA probe after proton irradiation, HepG2; conditions: control HepG2 cells, 50 μM, positive control
Source text: as §1, §2

Measured: ROS (H2-DCFDA fluorescence)

CC(=O)N[C@@H](CS)C(=O)O [NAC, N-acetyl cysteine, reference compound]
decrease in ROS: all assays above
